“Also recorded” adds a separate entry of the source. Read-outs that look alike come from different tables or passages of the source.
Legend:
rat trace amine receptor = target: T1, rat trace amine receptor (Rattus norvegicus, UniProt Q923Y9, L170Q/L53I/P183L/R211E/S15R); experiment: cell-based; format: cell-based; settings: for Emax: HEK293, percent of stimulation by p-tyramine, read-out: Maximal Stimulation (% ± SEM)
T1 construct: expression vector containing the full-length rat cDNA clone described above; expressed in transfected cells

[1] = target: T2, human trace amine receptor (Homo sapiens, UniProt Q96RJ0, S183L/Y279S); experiment: MAP kinase pathway (Elk-gal/luciferase reporter) stimulation in HEK 293 cells transfected with H2-3 pcDNA3.1; format: cell-based; settings: compared with cells incubated in the absence of the ligand; receptor-transfected HEK 293 cells
T2 construct: expressed in transfected cells; host or cells: HEK 293 cells, pcDNA 3.1 vector (construct H2-3 pcDNA3.1)
T2 sequence (Q96RJ0 1-339 S183L/Y279S): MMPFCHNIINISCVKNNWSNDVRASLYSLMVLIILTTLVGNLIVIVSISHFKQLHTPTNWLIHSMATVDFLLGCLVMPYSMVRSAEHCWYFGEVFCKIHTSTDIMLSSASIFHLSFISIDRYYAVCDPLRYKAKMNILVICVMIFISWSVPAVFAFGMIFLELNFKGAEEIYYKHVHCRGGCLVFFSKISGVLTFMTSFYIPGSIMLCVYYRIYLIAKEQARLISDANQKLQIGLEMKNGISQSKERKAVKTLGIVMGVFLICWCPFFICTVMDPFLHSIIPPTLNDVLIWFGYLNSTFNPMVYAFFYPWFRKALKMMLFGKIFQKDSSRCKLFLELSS
Excerpt: (§1) Control cells were transfected with pcDNA3.1 without the rat trace amine receptor sequences. All cells were also co-transfected with 2 additional constructs: one (elk-gal) that encoded the yeast transcription factor gal under the transcriptional control of an Elk-responsive promoter, and another encoding firefly luciferase under the transcriptional control of a gal-responsive promoter.

[2] = test system: HEK 293 cells transfected with pcDNA3.1; experiment: MAP kinase pathway luciferase reporter in control HEK 293 cells transfected with pcDNA3.1 without receptor; format: cell-based, human; settings: compared with cells incubated in the absence of the ligand
Excerpt: as §1

[3] = Table III, cAMP, 1 hour at 37° C., 100 μM IBMX, read-out: EC50 (nM ± SEM)
[4] = untitled table after Table III, first value column, read-out: EC50 (nM), NEUROTRANSMITTERS, first column
[5] = untitled table after Table III, second value column, read-out: EC50 (nM), NEUROTRANSMITTERS, second column (no head of its own)
[6] = EC50 (nM), NEUROTRANSMITTERS, first column
[7] = EC50 (nM), NEUROTRANSMITTERS, second column (no head of its own)
[8] = untitled table after Table III, drugs, read-out: EC50 (nM), DRUGS

T1 sequence (Q923Y9 whole entry S15R/L53I/L170Q/P183L/R211E): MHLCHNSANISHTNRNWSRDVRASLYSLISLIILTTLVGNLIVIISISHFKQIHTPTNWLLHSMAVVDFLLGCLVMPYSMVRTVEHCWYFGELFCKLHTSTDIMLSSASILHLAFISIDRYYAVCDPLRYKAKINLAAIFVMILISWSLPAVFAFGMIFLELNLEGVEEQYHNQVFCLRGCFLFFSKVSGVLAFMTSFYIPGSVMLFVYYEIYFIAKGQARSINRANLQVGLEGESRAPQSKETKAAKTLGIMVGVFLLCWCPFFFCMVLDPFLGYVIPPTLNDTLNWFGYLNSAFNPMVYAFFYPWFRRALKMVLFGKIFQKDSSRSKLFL

NCCc1ccccc1 [Phenethylamine, β-phenethylamine]
EC50 (rat trace amine receptor; [3]): 237 ± 71 nM | EC50 (rat trace amine receptor; [4]): 218 nM | EC50 (rat trace amine receptor; [5]): 124 nM

CN1CC=C(c2ccccc2)CC1 [MPTP, 1-methyl 4phenyl-1,2,3,6-tetrahydropyridine]
EC50 (rat trace amine receptor; [3]): 99 ± 11 nM

NCCc1ccc(O)cc1 [p-tyramine]
EC50 (rat trace amine receptor; EC50 (nM ± SEM)): 69 ± 9 nM | EC50 (rat trace amine receptor; EC50 (nM), DRUGS): 20.2 nM | EC50 (rat trace amine receptor; [6]): 44.9 nM | EC50 (rat trace amine receptor; [7]): 82 nM | Emax (rat trace amine receptor; Table III): 100%

COc1ccc(CCN)cc1 [p-methoxy PEA]
EC50 (rat trace amine receptor; [8]): 346 nM

NCCc1c[nH]c2ccc(O)cc12 [5-hydroxytryptamine]
fold stimulation (luciferase), H2-3 pcDNA3.1 [1]: 1.22 fold | fold stimulation (luciferase), pcDNA3.1 [2]: 1 fold | Emax (rat trace amine receptor; Table III): 47 ± 9% | EC50 (rat trace amine receptor; [3]): 12800 ± 4180 nM | EC50 (rat trace amine receptor; [4]): 1910 nM | EC50 (rat trace amine receptor; [5]): 8000 nM

COc1cc(CCN)ccc1O [3-methoxytyramine]
potency relative to precursor catecholamines dopamine, norepinephrine, epinephrine (rat trace amine receptor): significantly more potent; also recorded: more potently activated

COc1cc(CC(=O)O)ccc1O [homovanillic acid, 3-methoxy4-hydroxyphenylacetic acid]
activation of the trace amine receptor (cAMP production), in words (rat trace amine receptor): no detectable activity

NCCc1cccc(O)c1 [m-tyramine]
EC50 (rat trace amine receptor; [3]): 5370 ± 1180 nM | EC50 (rat trace amine receptor; [4]): 7190 nM | EC50 (rat trace amine receptor; [5]): 5800 nM

C=CCN1CCc2c(cc(O)c(O)c2Cl)C(c2ccccc2)C1 (centres unmarked) [SKF82958]
fold stimulation (luciferase), pcDNA3.1 [2]: 0.79 fold

NCC(O)c1ccc(O)cc1 (centres unmarked) [Octopamine]
EC50 (rat trace amine receptor; EC50 (nM ± SEM)): 1300 ± 350 nM | EC50 (rat trace amine receptor; [6]): 874 nM | EC50 (rat trace amine receptor; [7]): 1400 nM

N[C@@H](CCC(=O)O)C(=O)O [glutamate]
activation of the trace amine receptor (cAMP production), in words (rat trace amine receptor): not activated

CN[C@H](C)Cc1ccccc1 [R-methamphetamine]
EC50 (rat trace amine receptor; [8]): 236 nM

CNCC(O)c1ccc(O)cc1 (centres unmarked) [Synephrine]
EC50 (rat trace amine receptor; [3]): 584 ± 100 nM

COc1cc(C(O)CN)ccc1O (stereo not drawn) [normetanephrine, 3-methoxy-β-4-dihydroxy-β-phenethylamine]
potency relative to precursor catecholamines dopamine, norepinephrine, epinephrine (rat trace amine receptor): significantly more potent; also recorded: more potently activated

NCCc1c[nH]c2ccccc12 [Tryptamine]
EC50 (rat trace amine receptor; [3]): 309 ± 76 nM | EC50 (rat trace amine receptor; [4]): 248 nM | EC50 (rat trace amine receptor; [5]): 519 nM

CNCC(O)c1ccc(O)c(OC)c1 (stereo not drawn) [metanephrine, 3-methoxy-β-4-dihydroxy-N-methyl-β-phenethylamine]
potency relative to precursor catecholamines dopamine, norepinephrine, epinephrine (rat trace amine receptor): significantly more potent; also recorded: more potently activated

CN[C@@H](C)Cc1ccccc1 [S-methamphetamine]
EC50 (rat trace amine receptor; [8]): 188 nM

CN1C[C@H](C(=O)N[C@]2(C)O[C@@]3(O)[C@@H]4CCCN4C(=O)[C@H](Cc4ccccc4)N3C2=O)C[C@@H]2c3cccc4[nH]cc(c34)C[C@H]21 [dihydroergotamine]
activation of the trace amine receptor (cAMP production), in words (rat trace amine receptor; listed as dihydroergotsmnine): stimulate camp production
